For orientation: Kd means the constant that tells how readily two partners part at equilibrium. A lower Kd goes with a tighter complex.

The target in one assay is pVHL19 (Homo sapiens, UniProt P40337). Kind of assay: Isothermal titration calorimetry (ITC) against VCB complex with short VHL isoform (V19CB). More on the design: made in house. The settings on record: for ΔG / ΔH / −TΔS / Kd / n: 25 °C; for ΔG / ΔH / −TΔS / α: pVHL19; for Kd / n: pVHL19 (V19CB); for n: stoichiometry of binding; for α: avidity / cooperativity compared to VH032, ITC. The assay is classed as binding. As for the experimental part: Protein expression and purification. Human proteins VHL (UniProt accession number: P40337), ElonginC (Q15369), and ElonginB (Q15370) were used for all protein expression. The short-isoform-containing VCB complex (V19CB) was expressed, purified and stored as described previously. For expression of the long-isoform-containing VCB complex (V30CB), N-terminally His6-tagged VHL (1–213), ElonginC (17–112) and ElonginB (1–104) were co-expressed in Escherichia coli BL21(DE3) at 20 °C for 18 h using 0.5 mM isopropyl β-D-1-thiogalactopyranoside (IPTG). E. coli cells were resuspended in binding buffer (50 mM HEPES, pH 8.0, 500 mM NaCl, 10 mM imidazole and 5 mM β-mercaptoethanol), lysed using a pressure cell homogenizer (Stansted Fluid Power), and lysate clarified by centrifugation. The supernatant was loaded onto a HisTrap FF affinity column (GE Healthcare) equilibrated with binding buffer, and bound protein was eluted using an imidazole gradient. The His6 tag was removed using thrombin protease (Sigma), and the untagged complex was dialyzed into binding buffer. V30CB was then loaded onto the HisTrap FF column a second time, allowing impurities to bind as the complex eluted without binding. The flow-through was dialyzed using a low-salt buffer (20 mM HEPES, pH 8.0, 25 mM NaCl and 1 mM DTT) and then loaded onto a Resource Q anion exchange column (GE Healthcare); bound protein was eluted across a linear NaCl gradient. V30CB was then additionally purified by size-exclusion chromatography using a Superdex-75 16/600 column (GE Healthcare) equilibrated with 20 mM HEPES, pH 7.5, 100 mM sodium chloride and 1 mM TCEP. All chromatography purification steps were performed using Äkta FPLC purification systems (GE Healthcare).
Sequence of pVHL19 (P40337 54-213): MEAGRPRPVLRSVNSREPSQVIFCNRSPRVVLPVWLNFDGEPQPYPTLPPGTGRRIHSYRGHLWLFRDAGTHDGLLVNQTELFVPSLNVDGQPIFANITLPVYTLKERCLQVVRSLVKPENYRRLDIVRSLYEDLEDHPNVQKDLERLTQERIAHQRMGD
Sequence of pVHL19 (Q15369 17-112 partner limits assumed): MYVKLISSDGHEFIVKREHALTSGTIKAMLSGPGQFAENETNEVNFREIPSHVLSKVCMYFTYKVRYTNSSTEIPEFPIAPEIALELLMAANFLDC
Sequence of pVHL19 (Q15370 1-104 partner limits assumed): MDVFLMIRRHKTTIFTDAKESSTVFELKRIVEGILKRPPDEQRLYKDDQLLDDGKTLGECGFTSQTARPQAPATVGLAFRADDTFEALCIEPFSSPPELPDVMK
Isothermal titration calorimetry (ITC). Titrations were performed on an ITC200 micro-calorimeter (GE Healthcare). […] The final DMSO concentration was 0.15% v/v. VCB protein experiments were carried out in a buffer containing 20 mM Bis-tris propane, 150 mM NaCl, 1 mM TCEP, 0.15% v/v DMSO, pH 7.4. The titrations consisted of 19 injections of 2 µL compounds solution (150 µM, in the syringe) at a rate of 0.5 µl s^−1 at 120 s time intervals into the VCB protein solution (20 µM, in the cell). An initial injection of compound solution (0.4 µL) was made and discarded during data analysis. All experiments were performed at 25 °C, whilst stirring the syringe at 600 rpm. The data were fitted to a single binding site model to obtain the stoichiometry n, the dissociation constant K d and the enthalpy of binding ΔH using the Microcal LLC ITC200 Origin software provided by the manufacturer.

Another assay addresses T1, VCB (Homo sapiens, UniProt P40337).
T1 construct: made in house
Kind of assay: AlphaLISA proximity assay of ternary complex formation. Format: binding. The settings on record: biotinylated VCB 20 nM, His6-VCB 20 nM, compound 0.5–200 nM. As for the experimental part: Biotinylation of VCB. The VCB complex was mixed with EZ-link NHS-PEG4-biotin (Thermo Scientific) in a 1:1 molar ratio and incubated at room temperature for 1 h. The reaction was quenched using 1 M Tris-HCl, pH 7.5, and unreacted NHS-biotin was removed with a PD-10 MiniTrap desalting column (GE Healthcare) equilibrated with 20 mM HEPES, pH 7.5, 150 mM NaCl and 1 mM DTT.
AlphaLISA assay. All assays were performed at room temperature in 384-well plates with a final assay volume of 25 µL per well; plates were sealed with transparent film between addition of reagents. All reagents were prepared as 5× stocks diluted in 50 mM HEPES, pH 7.5, 100 mM NaCl, 0.1% (w/v) bovine serum albumin and 0.02% (w/v) 3-[(cholamidopropyl)dimethylammonio]-1-propanesulfonate (CHAPS). Biotinylated VCB (20 nM final) and His6-VCB (20 nM final) were incubated with a range of Homo-PROTAC concentrations (0.5–200 nM; three-in-five serial dilution) for 1 h. Anti-His acceptor beads (PerkinElmer, 10 µg ml^−1 final) were added and plates were incubated for another hour. Streptavidin-coated donor beads (PerkinElmer, 10 µg ml^−1 final) were added and plates were incubated for a final 1 h. Plates were read on a PHERAstar FS (BMG Labtech) using an optic module with an excitation wavelength of 680 nm and emission wavelength of 615 nm. Intensity values were plotted against PROTAC concentration on a log10 scale.
For orientation: Alpha assays give light when donor and acceptor beads are brought close together.

Values joined by “and” are separate entries in the source; they are usually repeats but may differ in a detail not shown here. Equal values may be shown once.

T1 sequence (P40337 54-213): as the sequence (P40337 54-213) above
T1 sequence (Q15369 17-112 partner limits assumed): as the sequence (Q15369 17-112 partner limits assumed) above
T1 sequence (Q15370 1-104 partner limits assumed): as the sequence (Q15370 1-104 partner limits assumed) above

In the case of `Cc1ncsc1-c1ccc(CNC(=O)[C@@H]2C[C@@H](O)CN2C(=O)[C@@H](NC(=O)COCCOCCOCCOCC(=O)N[C@H](C(=O)N2C[C@H](O)C[C@H]2C(=O)NCc2ccc(-c3scnc3C)cc2)C(C)(C)C)C(C)(C)C)cc1` [CM09, N ^1 ,N ^14-bis((S)-1-((2S,4R)-4-hydroxy-2-((4-(4-methylthiazol-5-yl)benzyl)carbamoyl)pyrrolidin-1-yl)-3,3-dimethyl-1-oxobutan-2-yl)-3,6,9,12-tetraoxatetradecanediamide], at pVHL19 (ITC), the ΔG result was “–10.3 ± 0.2 kcal mol^−1”, the ΔH entry is recorded as “–6.9 ± 0.3 kcal mol^−1”, the “−TΔS” value is given as “–3.5 ± 0.5 kcal mol^−1” and the Kd amounted to 41 ± 15 nM. Besides, the n at pVHL19 (ITC) turned out to be 0.98 ± 0.09. This compound gave a α on pVHL19 of 4. Besides, the “ternary complex formation, AlphaLISA intensity” value (“ternary complex formation” below) on VCB was “negligible levels of complex formation”.

Take `Cc1ncsc1-c1ccc(CNC(=O)[C@@H]2C[C@@H](O)CN2C(=O)[C@@H](NC(=O)COCCOCCOCCOCCOCC(=O)N[C@H](C(=O)N2C[C@H](O)C[C@H]2C(=O)NCc2ccc(-c3scnc3C)cc2)C(C)(C)C)C(C)(C)C)cc1` [CM10, N ^1 ,N ^17-bis((S)-1-((2S,4R)-4-hydroxy-2-((4-(4-methylthiazol-5-yl)benzyl)carbamoyl)pyrrolidin-1-yl)-3,3-dimethyl-1-oxobutan-2-yl)-3,6,9,12,15-pentaoxaheptadecanediamide]: on pVHL19 (ITC), the ΔG result is listed as “–10.2 ± 0.1 kcal mol^−1”, the ΔH entry is on record as “–9.4 ± 0.1 kcal mol^−1”, the “−TΔS” value was “–0.8 ± 0.2 kcal mol^−1” and the Kd was 32 ± 5 nM. Moreover, the n on pVHL19 (ITC) is reported as 0.73 ± 0.01. In addition, the α on pVHL19 came out at 6. Moreover, on VCB, the “ternary complex formation” value is given as “negligible levels of complex formation”.

For `Cc1ncsc1-c1ccc(CNC(=O)[C@@H]2C[C@@H](O)CN2C(=O)[C@@H](NC(=O)COCCOCCOCCOCCOCCOCC(=O)N[C@H](C(=O)N2C[C@H](O)C[C@H]2C(=O)NCc2ccc(-c3scnc3C)cc2)C(C)(C)C)C(C)(C)C)cc1` [CM11, N ^1 ,N ^20-bis((S)-1-((2S,4R)-4-hydroxy-2-((4-(4-methylthiazol-5-yl)benzyl)carbamoyl)pyrrolidin-1-yl)-3,3-dimethyl-1-oxobutan-2-yl)-3,6,9,12,15,18-hexaoxaicosanediamide], at pVHL19 (ITC), the ΔG entry is given as “–10.9 ± 0.1 kcal mol^−1”; the “−TΔS” value was 1.4 kcal/mol and 1.4 ± 0.8 kcal/mol; the dissociation constant (Kd) worked out at 11 ± 2 nM; the n is recorded as 0.6 ± 0.01. Also, the “avidity (cooperativity α) compared to VH032” value at pVHL19 (ITC, VCB) is recorded as greater than 18 fold. Moreover, the α at pVHL19 is reported as 18. For the same compound, the “ternary complex formation” value on VCB is given as “highest intensity signal”.

Values taken from paper PMC5635026, “Homo-PROTACs: bivalent small-molecule dimerizers of the VHL E3 ubiquitin ligase to induce self-degradation” (Nature Communications, 2017).
